Results reported in paper PMC12681733, “Multifunctional kojic acid-tetrahydroisoquinoline hybrids: Synthesis, tyrosinase inhibition, and applications in the anti-browning of fresh-cut mushrooms” (Current Research in Food Science, 2025).

Assays:
[1] = target: tyrosinase; conditions: ref Zhang et al., 2025; cited from earlier work
[2] = tested on: Botrytis cinerea; assay: Antifungal activity, radial growth on PDA; format: cell-based; conditions: 4c at high concentrations (5, 15, 30 μg/mL tested), 72 h
Experimental: Fungal contamination is a major cause of food spoilage. To evaluate the antifungal potential of 4c, its efficacy against the common phytopathogen Botrytis cinerea (B. cinerea) was investigated ([Zhou et al., 2025]). The assay was performed as follows: B. cinerea was first cultivated on Potato Dextrose Agar (PDA) to ensure robust growth. Subsequently, 4c was prepared at various concentrations and incorporated into PDA to form a drug-containing medium. Fungal mycelia were then inoculated onto the center of both the treatment and control plates, with the latter containing an equal volume of physiological saline instead of the compound. All plates were incubated at 27 °C for 72 h. Following incubation, the colonial growth on each Petri dish was photographed, with particular attention to the mycelial morphology and expansion. The antifungal activity was quantified by measuring the radial growth of the fungus, and the inhibition rate was calculated according to formula (3):(3) FungalInhibitionrate(%)=(1−DS/D0)×100% where D0 is the growth size of the control group, DS is the growth size of the group containing the sample group.

[3] = tested on: tyrosinase; assay: Fluorescence quenching of tyrosinase; format: binding
Experimental: Fluorescence intensity quantification was performed on a spectrofluorometer (Cary Eclipse) following a literature-established protocol ([Peng et al., 2021]), a tyrosinase solution (200 U/mL) was prepared in phosphate buffer (pH = 6.8). Incremental volumes of 4c solution at identical concentrations were added to the enzyme solution. With an excitation wavelength of 280 nm, an emission slit width of 5 nm, and the mixture was recorded in the 290–450 nm emission wavelength range.

[4] = Stability evaluation (HPLC content); format: physicochemical
Experimental: The purpose of stability testing is to provide evidence on how the quality of an active substance varies with time under the influence of a variety of environmental factors such as temperature, humidity, and light. Compound 4c with the strongest activity was evaluated for its stability. 4c was first dissolved in acetonitrile to prepare a 100 mM stock solution. This stock solution was then diluted to a 10 mM working concentration using different pH buffer solutions (4.0, 7.0 and 9.0). The samples were aliquoted into sealed vials. These vials were placed at different temperatures (25 °C, 40 °C and 60 °C) under both light-exposed and light-protected conditions for stability testing. The content change of the compound was monitored at scheduled time intervals (0 h, 24 h and 72 h) using an HPLC method.

[5] = tested on: Escherichia coli; assay: Antibacterial activity, plate counting; format: cell-based; conditions: for antibacterial rate against E. coli: KA and THIQ groups, Fig. 7A
Experimental: (§1) The antibacterial activity of 4c against Escherichia coli (E. coli) and Staphylococcus aureus (S. aureus) was evaluated using a modified plate counting method based on literature reports ([Ruan et al., 2024]). In this process, the strains were first activated on LB agar medium at 37 °C for 18 h. Subsequently, bacterial suspensions (1 × 10^8 CFU/mL) were prepared in fresh nutrient broth medium according to the 0.5 McFarland turbidity standard. These suspensions were then diluted to 1 × 10^5 CFU/mL for antibacterial testing. Various concentrations of 4c solutions were prepared and mixed with the 1 × 10^5 CFU/mL bacterial suspensions, with equal volumes of physiological saline added to the control group. The mixtures were incubated at 37 °C for 12 h, serially diluted, plated (100 μL) onto plate count agar medium, and incubated for 24 h at 37 °C for colony counting. Each experiment was conducted in triplicate, and the antibacterial rate was calculated using the following formula (2):(2) BacterialInhibitionrate(%)=(1−XS/X0)×100% where X0 represented the bacterial colony count of the control group post 24-h incubation, while XS denoted the average bacterial colony count of the sample group.

[6] = tested on: Staphylococcus aureus; assay: Antibacterial activity, plate counting; format: cell-based; conditions: for antibacterial rate against S. aureus: KA and THIQ groups, Fig. 7A
Experimental: as §1

[7] = target: tyrosinase (Agaricus bisporus, UniProt C7FF04); assay: Kinetic analysis (Lineweaver-Burk plots, L-DOPA); format: biochemical, mushroom
Experimental: Reaction rates were determined using different concentrations of compounds (1.25, 2.5, and 5 μM) and L-DOPA solutions (0.5, 1, 1.5, and 2 mM).

[8] = tested on: fresh-cut mushrooms; assay: Anti-browning study on fresh-cut mushrooms; design: species or system button mushrooms; conditions: 100 μM sprayed, 4 °C, 7-day storage; versus KA and control
Experimental: Fresh and clean mushrooms of appropriate size were purchased from the local supermarket and their surfaces were evenly trimmed. […] CIE Lab values (L∗, a∗, and b∗) were measured using a colorimeter (NR60CP) to monitor the color changes of the fresh-cut mushrooms ([Wang et al., 2023]). The browning progression on mushroom surfaces was monitored via daily photographic documentation. The anti-browning efficacy was quantified using the total color difference (ΔE), calculated according to formula (4):(4) ΔE=[(Lt∗−Linitial∗)^2+(at∗−ainitial∗)^2+(bt∗−binitial∗)^2]^0.5

[9] = tested on: tyrosinase; assay: ANS-binding fluorescence measurement; conditions: 4c from 0 μM to 50 μM
Experimental: An equal volume of ANS solution (80 μM) was added to the tyrosinase solution (400 U/mL). After thorough mixing, the mixture was left to stand at room temperature for 30 min. Subsequently, a specific amount of the ANS-labeled tyrosinase solution was extracted, vigorously shaken, and 4c was incrementally added dropwise to this mixture. The fluorescence spectrum of the mixture was scanned under conditions of an excitation wavelength of 390 nm, an emission slit width of 5 nm, and an emission wavelength range of 400–600 nm ([Lü et al., 2010]).

[10] = tested on: zebrafish embryos; assay: Acute toxicity in zebrafish embryos (OECD FET No. 236); format: in vivo; conditions: 4c 25, 50, 100 μM; KA 100 μM; observed at 48 hpf
Experimental: The acute toxicity assay was conducted in accordance with the Guidelines of Organization for Economic Co-operation and Development (OECD) for the Testing of Chemicals, Fish Embryo Acute Toxicity (FET) Test, No. 236 ([OECD, 2013]). All zebrafish procedures in this study were approved by Anhui Medical University Experimental Animal Ethics Committee (Protocol No.: LLSC20241625). The zebrafish were maintained in accordance with the established protocols of the Zebrafish International Resource Center. Surviving zebrafish were humanely euthanized at the end of the study to prevent prolonged suffering. The euthanasia method involved immersion in a buffered solution of tricaine methanesulfonate at a concentration of 300 mg/L for at least 10 min, followed by confirmation of death through the cessation of gill movement and heartbeat. Carcasses were promptly frozen at −20 °C and disposed of through authorized biological waste channels.
Referring to published methods with certain modifications ([Qian et al., 2018]), 13–15 h post-fertilization (hpf) zebrafish embryos were placed in small dishes containing 5 mL of culture medium in this experiment. Different concentrations of 4c (25, 50, 100 μM) and KA (100 μM) were added to the dishes, respectively, and the experiments were repeated three times. […]

[11] = tested on: tyrosinase; assay: UV spectra measurement; format: binding; conditions: addition of 4c
Experimental: Following the reported methods ([Chen et al., 2022]), a 3 mL assay system was established by adding a solution of 4c (300 μM, 350 μL) and tyrosinase solution (200 U/mL, 400 μL) to 2250 μL of PBS at pH 6.8. Spectral measurements were carried out using a UV-1800 spectrophotometer with wavelength scanning from 200 to 400 nm. Three experimental controls were implemented: (1) PBS buffer as blank reference, (2) 4c solution in PBS without enzyme, and (3) enzyme solution in PBS without 4c. To ensure measurement reliability, all spectra were acquired in triplicate through independent scanning processes. Background corrections were systematically applied using corresponding control solutions for each experimental condition.

[12] = plot of log[(F0−F)/F] against log[I]
[13] = 4c at high concentrations (5, 15, 30 μg/mL tested)

Chain of tyrosinase (Agaricus bisporus, UniProt C7FF04) (C7FF04 1-392): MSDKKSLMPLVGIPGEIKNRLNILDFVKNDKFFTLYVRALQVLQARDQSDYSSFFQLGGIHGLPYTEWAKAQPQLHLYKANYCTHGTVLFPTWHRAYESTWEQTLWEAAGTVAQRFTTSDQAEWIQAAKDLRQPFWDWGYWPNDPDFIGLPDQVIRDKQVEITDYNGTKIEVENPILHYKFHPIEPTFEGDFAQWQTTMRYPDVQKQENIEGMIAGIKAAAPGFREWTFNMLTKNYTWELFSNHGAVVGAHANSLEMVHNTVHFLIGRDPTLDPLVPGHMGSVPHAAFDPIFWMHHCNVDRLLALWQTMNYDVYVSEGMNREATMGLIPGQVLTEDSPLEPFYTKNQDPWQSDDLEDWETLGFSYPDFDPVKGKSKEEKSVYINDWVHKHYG

In the case of Oc1ccccc1-c1nnc(S)o1 [Compound 2f, 5-(2-hydroxyphenyl)-1,3,4-oxadiazole-2-thiol], the IC50 [1] is listed as 17.7 ± 0.21 µM.

For COc1ccc2c(c1)CCN(Cc1cc(=O)c(O)co1)C2 [Compound 4c], the “inhibition rate against B. cinerea” value [2] was roughly 90%, the relative fluorescence intensity ([3]; 25 μM 4c) was 52% and the “fluorescence intensity of tyrosinase” value ([3]; 25 μM 4c, 146.61 without inhibitor, emission peak 354 nm) was 76.92. The fluorescence quenching mechanism ([3]; Kq versus maximum dynamic quenching constant) was “static quenching”, the Stern-Volmer quenching constant Ksv ([3]; Stern-Volmer plot) was 43000 L/mol and the “bimolecular quenching constant Kq” value ([3]; Stern-Volmer plot) was 4.3 × 10^12 L mol^−1 S^−1. The “apparent binding constant Ka” value [3, 12] was 15100 L/mol, the “number of binding sites n” value [3, 12] was 1.11 and the “content (stability testing)” value ([4]; 25℃, pH 4, 0 h) was 97.01%. For the same compound, the “content (stability testing)” value ([4]; 25℃, pH 4, 24 h) was 98.10%, the “content (stability testing)” value ([4]; 25℃, pH 4, 72 h) was 98.32% and the “content (stability testing)” value ([4]; 25℃, pH 7, 0 h) was 98.63%. The “content (stability testing)” value ([4]; 25℃, pH 7, 24 h) was 97.48%, the “content (stability testing)” value ([4]; 25℃, pH 7, 72 h) was 98.03% and the “content (stability testing)” value ([4]; 25℃, pH 9, 0 h) was 97.43%. The “content (stability testing)” value ([4]; 25℃, pH 9, 24 h) was 97.48%, the “content (stability testing)” value ([4]; 25℃, pH 9, 72 h) was 97.59% and the “content (stability testing)” value ([4]; 40℃, pH 4, 0 h) was 97.02%. The “content (stability testing)” value ([4]; 40℃, pH 4, 24 h) was 97.50%, the “content (stability testing)” value ([4]; 40℃, pH 4, 72 h) was 97.41% and the “content (stability testing)” value ([4]; 40℃, pH 7, 0 h) was 97.56%. For the same compound, the “content (stability testing)” value ([4]; 40℃, pH 7, 24 h) was 96.04%, the “content (stability testing)” value ([4]; 40℃, pH 7, 72 h) was 97.75% and the “content (stability testing)” value ([4]; 40℃, pH 9, 0 h) was 96.51%. For the same compound, the “content (stability testing)” value ([4]; 40℃, pH 9, 24 h) was 95.00%, the “content (stability testing)” value ([4]; 40℃, pH 9, 72 h) was 96.12% and the “content (stability testing)” value ([4]; 60℃, pH 7, 0 h) was 96.64%. The “content (stability testing)” value ([4]; 60℃, pH 7, 24 h) was 96.84%, the “content (stability testing)” value ([4]; 60℃, pH 7, 72 h) was 96.62% and the “content (stability testing)” value ([4]; 60℃, pH 9, 0 h) was 96.61%. The “content (stability testing)” value ([4]; 60℃, pH 9, 24 h) was 96.04%, the “content (stability testing)” value ([4]; 60℃, pH 9, 72 h) was 96.26% and the “content (stability testing)” value ([4]; Light, pH 7, 0 h) was 96.64%. For the same compound, the “content (stability testing)” value ([4]; Light, pH 7, 24 h) was 96.84%, the “content (stability testing)” value ([4]; Light, pH 7, 72 h) was 96.62% and the “content (stability testing)” value ([4]; Light, pH 9, 0 h) was 96.61%. The “content (stability testing)” value ([4]; Light, pH 9, 24 h) was 96.04%, the “content (stability testing)” value ([4]; Light, pH 9, 72 h) was 96.26% and the retention rate ([4]; after 72 h, all pH (4.0, 7.0, 9.0) and temperatures (25, 40, 60 °C)) was greater than 95%. The “inhibition rate against E. coli” value [5, 13] was roughly 100%, the “inhibition rate against S. aureus” value [6, 13] was roughly 100% and the Ki ([7]; L-DOPA substrate, slope replot, read-out: inhibition constant Ki for free enzyme) was 1.48 µM. The inhibition type ([7]; Lineweaver-Burk plots) was “mixed-type inhibitor”, the “L∗ (lightness) of fresh-cut mushrooms” value [8] was “highest L∗ value” and the “total color difference ΔE of fresh-cut mushrooms” value [8] was “lowest ΔE value”. For the same compound, the “maximum fluorescence intensity of ANS-TYR” value [9] was “gradually increased”, the “acute toxicity in zebrafish embryos” value [10] was “no significant toxic effects” and the “characteristic absorption peak of tyrosinase at 280 nm” value [11] was “significant decrease”.

For c1ccc2c(c1)CCNC2 [THIQ, tetrahydroisoquinoline], the “antibacterial rate against E. coli” value [5] was “low antibacterial rates” and the “antibacterial rate against S. aureus” value [6] was “low antibacterial rates”.

With O=c1cc(CO)occ1O [Kojic acid] the “antibacterial rate against E. coli” value [5] was “low antibacterial rates”, the “antibacterial rate against S. aureus” value [6] was “low antibacterial rates” and the “acute toxicity in zebrafish embryos” value [10] was “partial mortality”.
